{"source": "patent US5741669A", "about": "“Insecticidally effective peptides” (FMC Corporation, priority 1995, dated 1998)", "molecules": {"B1": {"name": "NPS-373 (protein)", "chain": "MKLQLMICLVLLPCFFCEPDEICRARMTNKEFTYKSNVCNGCGDQVAACEAECFRNDVYTACHEAQKG"}}, "key": {"[1]": {"test_system": "European corn borer, Ostrinia nubilalis (ECB)", "assay": "Two-dose injection assay of toxins in ECB larvae", "format": "in vivo", "source_text": "(§1) The insects tested were last instar, laboratory reared larvae of the tobacco budworm, Heliothis virescens (TBW); the beet armyworm, Spodoptera exigua (BAW); the cabbage looper,Trichoplusia ni (CL); the corn earworm, Heliothis (Helicoverpa) zea (CEW); the fall armyworm, Spodoptera frugiperda (FAW); the soybean looper, Pseudoplusia includens (SBL); the European corn borer, Ostrinia nubilalis (ECB); and the diamondback moth, Plutella xylostella (DBM). Adult house flies, Musca domestica (HF) and adult Southern corn rootworm beetles, Diabrotica undecimpunctata (SRC) were also tested. The first six species (TBW, BAW, CL, CEW, FAW, and SBL) are in the family Noctuidae of the order Lepidoptera. O. nubilalis and P. xylostella are lepidopterans in the families Pyralidae and Plutellidae, respectively. […] Whole venom doses were calculated in terms of WVE. […] Doses of components from early fractionations were also calculated in terms of WVE; doses of purified toxins were calculated from ultraviolet absorbances at 280 nm. […]\n(§2) Full dose-response assays were carried out in TBW (n=6), BAW (n=6), CL (n=6) and SCR (n=5). […] LD50 values were determined by log-probit analysis basic program for microcomputer. […] Because probit analysis requires two responses that are neither zero nor 100 percent, […] values in several cases had to be estimated rather than calculated directly. […]"}, "[2]": {"test_system": "corn earworm, Heliothis (Helicoverpa) zea (CEW)", "assay": "Two-dose injection assay of toxins in CEW larvae", "format": "in vivo", "source_text": "as §1, §2"}, "[3]": {"test_system": "soybean looper, Pseudoplusia includens (SBL)", "assay": "Two-dose injection assay of toxins in SBL larvae", "format": "in vivo", "source_text": "as §1, §2"}, "[4]": {"test_system": "Southern corn rootworm beetles, Diabrotica undecimpunctata (SCR)", "assay": "Injection bioassay of toxins in adult Southern corn rootworm beetles", "format": "in vivo", "details": "D. undecimpunctata (SCR), NPS-326 value estimated (highest dose 100% mortality, rest none)", "source_text": "as §1, §2"}, "[5]": {"test_system": "fall armyworm, Spodoptera frugiperda (FAW)", "assay": "Two-dose injection assay of toxins in FAW larvae", "format": "in vivo", "source_text": "as §1, §2"}, "[6]": {"test_system": "cabbage looper, Trichoplusia ni (CL)", "assay": "Injection bioassay of whole venom and purified toxins in CL larvae", "format": "in vivo", "details": "T. ni (CL), log-probit analysis", "source_text": "as §1, §2"}, "[7]": {"test_system": "tobacco budworm, Heliothis virescens (TBW)", "assay": "Injection bioassay of whole venom and purified toxins in TBW larvae", "format": "in vivo", "details": "for LD50: H. virescens (TBW), log-probit analysis", "source_text": "The insects tested were last instar, laboratory reared larvae of the tobacco budworm, Heliothis virescens (TBW); the beet armyworm, Spodoptera exigua (BAW); the cabbage looper,Trichoplusia ni (CL); the corn earworm, Heliothis (Helicoverpa) zea (CEW); the fall armyworm, Spodoptera frugiperda (FAW); the soybean looper, Pseudoplusia includens (SBL); the European corn borer, Ostrinia nubilalis (ECB); and the diamondback moth, Plutella xylostella (DBM). Adult house flies, Musca domestica (HF) and adult Southern corn rootworm beetles, Diabrotica undecimpunctata (SRC) were also tested. The first six species (TBW, BAW, CL, CEW, FAW, and SBL) are in the family Noctuidae of the order Lepidoptera. O. nubilalis and P. xylostella are lepidopterans in the families Pyralidae and Plutellidae, respectively. M. domestica and D. undecimpunctata are in the orders Diptera and Coleoptera, respectively. All species tested are important pests in crop production except M. domestica which is a nuisance pest in agricultural and urban settings. All samples, whether whole venom or venom fractions, were prepared in filter-sterilized physiological saline, pH 6.5. Samples were administered by injection into the hemocoel at or near the lateral midline of the fourth abdominal segment; the needle was inserted at a shallow angle to avoid injury to internal organs. Whole venom doses were calculated in terms of WVE. One WVE is the amount of any material which is normally present in one microliter of whole milked venom. Doses of components from early fractionations were also calculated in terms of WVE; doses of purified toxins were calculated from ultraviolet absorbances at 280 nm. Scopes, Anal. Biochem., 59:277 (1974). Control insects were given an equivalent volume of buffered saline solution.\nFull dose-response assays were carried out in TBW (n=6), BAW (n=6), CL (n=6) and SCR (n=5). Other species were challenged with one or both toxins in a two-dose assay for purposes of estimating the toxins' activities in a variety of insects. LD50 values were determined by log-probit analysis basic program for microcomputer. Raymond, Set. Ent. med et Parasitol., 22:117 (1985). The insecticidal Tegenaria toxins generally have quite steep dose-response curves; frequently there is less than a 10-fold difference between a 100% lethal dose and a dose causing no mortality. Because probit analysis requires two responses that are neither zero nor 100 percent, […] values in several cases had to be estimated rather than calculated directly. In every case, however, there was an obvious and statistically significant dose response."}, "[8]": {"test_system": "beet armyworm, Spodoptera exigua (BAW)", "assay": "Injection bioassay of whole venom and purified toxins in BAW larvae", "format": "in vivo", "details": "S. exigua (BAW), estimate based on 50% mortality at this dose, all other responses 0% or 100%", "source_text": "as §1, §2"}, "[9]": {"test_system": "house flies, Musca domestica (HF)", "assay": "Injection bioassay of toxins in adult house flies", "format": "in vivo", "details": "M. domestica (HF), estimate from two-dose assay (100% and 30% mortality; control 10%)", "source_text": "as §1, §2"}, "[10]": {"test_system": "rat hippocampal preparation, the Schaffer collateral-CA 1 pyramidal cell synapse", "assay": "In vitro rat brain slice electrophysiology", "format": "cell-based", "details": "applied at 1 μm", "experimental": "(§3) Injection of 30 μg of NPS-326 into the cerebral ventricles (n=3) or peritoneum (n=2) of male Swiss-Webster mice (~30 gm) had no effect. The effects of NPS-331 in mammalian systems were further tested by in vitro rat brain slice electrophysiology. […] The assay is capable of detecting a variety of effects on various mammalian ion channels and neurotransmitter receptors (Dunwiddie, in Electrophysiological Techniques in Pharmacology, Alan R. Liss, Inc., New York (1986), pp. 65-90)."}, "[11]": {"test_system": "male Swiss-Webster mice", "assay": "Mammalian toxicity test by injection in mice", "format": "in vivo", "details": "30 μg, male Swiss-Webster mice (~30 gm)", "experimental": "as §3"}, "[12]": {"test_system": "diamondback moth, Plutella xylostella (DBM)", "assay": "Injection assay of toxin in DBM larvae", "format": "in vivo", "source_text": "as §1, §2"}}, "data": [{"molecule": "NPS-331 (EPDEICRARMTNKEFTYKSNVCNNCGDQVAACEAECFRNDVYTACHEAQK)", "values": [{"measurement": "estimated LD50", "setting": "[1]", "value": 0.64, "unit": "nmol/gm"}, {"measurement": "estimated LD50", "setting": "[2]", "value": 1, "unit": "nmol/gm"}, {"measurement": "estimated LD50", "setting": "[3]", "value": 1.05, "unit": "nmol/gm"}, {"measurement": "LD50", "setting": "[4]", "value": 0.57, "unit": "nmol/gm"}, {"measurement": "estimated LD50", "setting": "[5]", "value": 1.84, "unit": "nmol/gm"}, {"measurement": "LD50", "setting": "[6]", "value": 0.22, "unit": "nmol/gm"}, {"measurement": "LD50", "setting": "[7]", "value": 2.6, "unit": "nmol/gm"}, {"measurement": "LD50", "setting": "[8]", "value": "~0.29", "unit": "nmol/gm"}, {"measurement": "LD50", "setting": "[9]", "value": "~0.7", "unit": "nmol/gm"}, {"measurement": "effect on evoked synaptic responses", "setting": "[10]", "value": "without effect"}]}, {"molecule": "NPS-326 (EPDEICRARMTHKEFNYKSNVCNGCGDQVAACEAECFRNDVYTACHEAQK)", "values": [{"measurement": "estimated LD50", "setting": "[1]", "value": 1.1, "unit": "nmol/gm"}, {"measurement": "estimated LD50", "setting": "[2]", "value": 0.8, "unit": "nmol/gm"}, {"measurement": "effect of injection into the peritoneum", "setting": "[11]; n=2", "value": "no effect"}, {"measurement": "effect of injection into the cerebral ventricles", "setting": "[11]; n=3", "value": "no effect"}, {"measurement": "estimated LD50", "setting": "[3]", "value": 1.55, "unit": "nmol/gm"}, {"measurement": "LD50", "setting": "[4]", "value": "~2.0", "unit": "nmol/gm"}, {"measurement": "estimated LD50", "setting": "[5]", "value": 5.3, "unit": "nmol/gm"}, {"measurement": "LD50", "setting": "[6]", "value": 0.78, "unit": "nmol/gm"}, {"measurement": "LD50", "setting": "[7]", "value": 0.89, "unit": "nmol/gm"}, {"measurement": "approximate LD50", "setting": "[7]; TBW, venom-derived toxin", "value": "~5.7", "unit": "µg/g"}, {"measurement": "treated larvae developing tremors, spasms and convulsions", "setting": "[12]; 1.1 nmol/gm, within 24 hours", "value": 90, "unit": "%"}, {"measurement": "estimated LD50", "setting": "[12]; DBM larvae", "value": "< 1.1", "unit": "nmol/gm"}, {"measurement": "LD50", "setting": "[8]", "value": "~0.88", "unit": "nmol/gm"}]}, {"molecule": "B1", "values": [{"measurement": "treated larvae paralyzed", "setting": "[7]; 7.7 μg/g, TBW, n=6", "value": 50, "unit": "%"}]}]}
